Literature values, collected in patent publication CN104306347A, “一种卡维地洛双层缓释片及其制备方法” (BEIJING D-VENTUREPHARM TECHNOLOGY DEVELOPMENT Co Ltd, priority 2014, dated 2015).

Columns and labels:
[1] = in vivo

COc1ccccc1OCCNCC(O)COc1cccc2[nH]c3ccccc3c12 (stereo not shown) [卡维地洛]
first-pass effect (after oral administration): 有明显的首过效应 | oral absorption (after oral administration): 易于吸收 | elimination phase half-life (t1/2b) (in vivo): 7~10 h | excretion in urine as unchanged drug (in vivo): < 2% | plasma clearance (in vivo): 500~700 ml/min | steady-state volume of distribution (in vivo): ~1.5 L | metabolism (metabolites excreted via bile then faeces): 代谢完全 | absolute bioavailability (F) (oral): 25%~35% | absorption when taken with food (taken with food): 吸收减慢 | relative bioavailability when taken with food (taken with food): 没有明显影响 | incidence of adverse reactions [1]: 很低 | risk of postural hypotension when taken with food [1]: 可减少引起体位性低血压的危险性 | tolerability [1]: 耐受性良好
